We go through five molecules from US20220306695A1, “COMPSTATIN ANALOGUES AND THEIR MEDICAL USES” (priority 2019, published 2022).

Starred links: 1 amine or outer side, 2 acyl side, 3 side chain; linkers in the order of their positions; H or OH if unused. Positions of bridges follow the written chain, without caps; N, C: chain ends. Non-standard residues stand in square brackets, D forms with d. Residues, ends and D or L forms follow the SMILES beside them. Groups on a side chain read outwards from the residue. *: point of attachment. Trp(1-Me) = Cn1cc(C[C@H](N)C(=O)O)c2ccccc21; Abu(4-yl) = O=C([C@H](CC[*:3])N[*:1])[*:2]; C18 diacid = O=C(O)CCCCCCCCCCCCCCCCC(=O)*; C16 diacid = O=C(O)CCCCCCCCCCCCCCC(=O)*; γGlu = O=C(O)[C@H](CCC(=O)[*:2])N[*:1]; AEEA = NCCOCCOCC(=O)O; Sar = CNCC(=O)O

As a reminder, the IC50 is the point on the concentration scale where inhibition reaches its midpoint.

In this assay the test system is classical complement pathway. Put plainly: In vitro haemolysis assay (inhibition of classical complement pathway). To be noted: Table 3; human serum, sensitized sheep red blood cells; read-out: IC50[nM], in vitro analysis of inhibition of hemolysis. The class given is cell-based, human. The protocol:
Method The in vitro effect of test compounds was assessed by measuring their inhibitory effect of the classical complement pathway in a haemolysis assay. Briefly, test compounds and reference compounds were dissolved in DMSO and diluted in Tris/Casein Assay Buffer (10 mM Tris, 145 mM NaCl, 0.5 mM MgCl2, 0.15 mM CaCl2, and 0.1% W/V Casein, adjusted to pH 7.4) as 9-point serial dilutions in a 96 well plate. Sensitized sheep red blood cells (RBC) coated with rabbit anti-sheep erythrocyte antiserum (Complement Technology, Inc., TX, USA) were washed in Tris/Casein Assay Buffer. 50 μL from each well of diluted compound was added to a 96-well plate containing 50 μL diluted human serum (Complement Technology, Inc., TX, USA) and incubated for 15 minutes at room temperature. The serum dilution factor was optimized for every serum batch to obtain 70-90% of maximal haemolysis using the protocol. Then 50 μL sensitized sheep red blood cells were added to all wells ([…] per well). After 30 minutes of incubation at 37° C. with gentle agitation, the reaction was stopped by addition of 50 μL Tris STOP Buffer per well (10 mM EDTA, 10 mM Tris, 145 mM NaCl adjusted to pH 7.4). The RBCs were then removed by centrifugation and the resulting supernatant measured for hemolysis by absorbance at 405 nm. The response was normalized relative to a positive and negative control (vehicle) to calculate the IC50 from the concentration response curve using the 4-parameter logistic (4PL) nonlinear model for curve fitting.
For the molecule `CC[C@H](C)[C@@H]1NC(=O)[C@@H](NC(=O)[C@@H](NC(=O)[C@H](CCC(=O)O)NC(C)=O)[C@@H](C)CC)CSSC[C@@H](C(=O)N[C@H](C(=O)N[C@@H](CCC(=O)O)C(=O)NCC(=O)N[C@@H](CCC(=O)O)C(N)=O)[C@@H](C)O)NC(=O)[C@H](CCCNC(=N)N)NC(=O)[C@H](Cc2c[nH]cn2)NC(=O)[C@H](CCC(=O)O)NC(=O)CNC(=O)[C@H](Cc2c[nH]c3ccccc23)NC(=O)[C@H](CC(=O)O)NC(=O)[C@H](CCC(N)=O)NC(=O)[C@H](Cc2c[nH]c3ccccc23)NC1=O` [Compound 34] (Ac-EICIWQDWGEHRCTEGE-NH2; disulfide 3-13), the IC50 was less than 250 nM.
For `CC[C@H](C)[C@@H]1NC(=O)[C@@H](NC(=O)[C@H](Cc2ccccc2)NC(=O)[C@H](CCC(=O)O)NC(C)=O)CSCC[C@@H](C(=O)N(C)CC(=O)N[C@@H](CCC(=O)O)C(=O)N[C@@H](C)C(=O)NCCOCCOCC(=O)NCCOCCOCC(=O)N[C@@H](CCCCNC(=O)CC[C@H](NC(=O)CNC(=O)CC[C@H](NC(=O)CCCCCCCCCCCCCCCCC(=O)O)C(=O)O)C(=O)O)C(N)=O)NC(=O)[C@H](CCCNC(=N)N)NC(=O)[C@H](Cc2c[nH]cn2)NC(=O)[C@H](CCC(=O)O)NC(=O)CNC(=O)[C@H](Cc2c[nH]c3ccccc23)NC(=O)[C@H](CCC(=O)O)NC(=O)[C@H](CCC(N)=O)NC(=O)[C@H](Cc2cn(C)c3ccccc23)NC1=O` [Compound 158, Ac-EFA(1)I[1-Me-Trp]QEWGEHRhC(1)[Sar]EA[Peg3][Peg3]-K([17-carboxy-heptadecanoyl][γGlu]G[γGlu])-NH2] (Ac-EFCI[Trp(1-Me)]QEWGEHR[Abu(4-yl)][Sar]EA[AEEA][AEEA]K([γGlu-Gly-γGlu-C18 diacid])-NH2; thioether 3-13) the value was less than 250 nM; for `CC[C@H](C)[C@H](NC(C)=O)C(=O)N[C@H]1CSSC[C@@H](C(=O)N[C@H](C(=O)N[C@@H](CCC(=O)O)C(N)=O)[C@@H](C)O)NC(=O)[C@H](CCCNC(=N)N)NC(=O)[C@H](Cc2c[nH]cn2)NC(=O)[C@H](CCC(=O)O)NC(=O)CNC(=O)[C@H](Cc2c[nH]c3ccccc23)NC(=O)[C@H](CC(=O)O)NC(=O)[C@H](CCC(N)=O)NC(=O)[C@H](Cc2c[nH]c3ccccc23)NC(=O)[C@H]([C@@H](C)CC)NC1=O` [Compound 26] (Ac-ICIWQDWGEHRCTE-NH2; disulfide 2-12), less than 100 nM; for `CC[C@H](C)[C@@H]1NC(=O)[C@@H](NC(=O)[C@H](Cc2ccccc2)NC(=O)[C@H](CCC(=O)O)NC(=O)[C@H](CO)NC(C)=O)CSSC[C@@H](C(=O)N[C@H](C(=O)N[C@@H](CCC(=O)O)C(=O)NCC(=O)N[C@@H](CCC(=O)O)C(=O)NCC(=O)NCC(=O)NCC(=O)N[C@@H](CCCCNC(=O)CC[C@H](NC(=O)CNC(=O)CC[C@H](NC(=O)CCCCCCCCCCCCCCC(=O)O)C(=O)O)C(=O)O)C(N)=O)[C@@H](C)O)NC(=O)[C@H](CCCNC(=N)N)NC(=O)[C@H](Cc2c[nH]cn2)NC(=O)[C@H](CCC(=O)O)NC(=O)CNC(=O)[C@H](Cc2c[nH]c3ccccc23)NC(=O)[C@H](CC(=O)O)NC(=O)[C@H](CCC(N)=O)NC(=O)[C@H](Cc2cn(C)c3ccccc23)NC1=O` [Compound 131] (Ac-SEFCI[Trp(1-Me)]QDWGEHRCTEGEGGGK([γGlu-Gly-γGlu-C16 diacid])-NH2; disulfide 4-14), less than 100 nM.
For `CC[C@H](C)[C@@H]1NC(=O)[C@@H](NC(=O)[C@H](Cc2ccccc2)NC(=O)[C@H](CCC(=O)O)NC(=O)CNC(C)=O)CSSC[C@@H](C(=O)N(C)CC(=O)N[C@@H](CCC(=O)O)C(=O)N[C@@H](C)C(N)=O)NC(=O)[C@H](CCCNC(=N)N)NC(=O)[C@H](Cc2c[nH]cn2)NC(=O)[C@H](CCC(=O)O)NC(=O)CNC(=O)[C@H](Cc2c[nH]c3ccccc23)NC(=O)[C@H](CC(=O)O)NC(=O)[C@H](CCC(N)=O)NC(=O)[C@H](Cc2cn(C)c3ccccc23)NC1=O` [Compound 87] (Ac-GEFCI[Trp(1-Me)]QDWGEHRC[Sar]EA-NH2; disulfide 4-14) the value was less than 100 nM.
